Biological target: T1, PAF specific receptor binding site, human platelet membranes (Homo sapiens, UniProt P25105)
T1 construct: from tissue; host or cells: human platelets (plasma membrane suspension)
Experiment: Inhibition of [3H] N-methylcarbamoyl-PAF binding to human platelet membranes
Conditions: trans configuration; for inhibition at 0.003 µM: 3 nM; for inhibition at 0.03 µM: 30 nM
Experimental: The compounds of formula (I) inhibit PAF-induced functions in both the cellular and tissue levels by changing the PAF binding to its specific receptor site. The ability of a compound of formula (I) to inhibit the PAF binding to its specific receptor binding site on rabbit or human platelet or PMN plasma membranes was measured by a recently developed assay.
The inhibition of ^3 [H]-PAF or ^3 [H]-N-methylcarbamoyl-PAF binding to the human or rabbit platelet or PMN plasma membrane by a PAF antagonist of formula (I) was determined by a method employing isotopic labeling and filtration techniques. Generally, a series of Tris-buffered solutions of the selected antagonist at predetermined concentrations were prepared. Each of these solutions contains 1 pmole of ^3 H-PAF, a known amount of the test antagonist, and a sufficient amount of the pH 7.5 Tris-buffer solution (10 mM Tris, 0.25% bovine serum albumin, and 150 mM NaCl per ml water) to make the final volume of 1 ml. After adding into a set of test tubes each with 100 μg of the platelet plasma membrane suspension (S. B. Hwang, et al., Biochemistry. Vol. 22, pp. 4756-4763, 1983) and one of the Tris-buffer solutions described above, the resulting mixture in each test tube was incubated at 0° C. for about one hour or until the reaction was complete. Two control samples, one of which (C1) contains all the ingredients described above except the antagonist and the other (C2) contains C 1 plus a 1000-fold excess of unlabeled PAF, were also prepared and incubated simultaneously with the test samples. After the incubation was completed, the contents of each test tube were filtered under vacuo through a Whatman GF/C fiberglass filter and the residue washed rapidly several times with a total of 20 ml cold (0°-5° C.) Tris buffer solution. Each washed residue was then suspended in 10 ml scintillation solution (Aquasol 2, New England Nuclear, Conn.) and the radioactivity was counted in a Packard Tri-Carb 460CD Liquid Scintillation System. Defining the counts from a test sample as "Total binding with antagonist"; the counts from the control sample C1, as "Total binding C1 "; and the counts from the control sample C2 as "non-specific binding C2 ", the percent inhibition of each test antagonist can be determined by the following equations: [formula]
Specific binding=(Total binding C1)-(non-specific binding C2)
*Inibition of the binding of [^3 H] Nmethylcarbamoyl-PAF to human

T1 sequence (P25105 whole entry): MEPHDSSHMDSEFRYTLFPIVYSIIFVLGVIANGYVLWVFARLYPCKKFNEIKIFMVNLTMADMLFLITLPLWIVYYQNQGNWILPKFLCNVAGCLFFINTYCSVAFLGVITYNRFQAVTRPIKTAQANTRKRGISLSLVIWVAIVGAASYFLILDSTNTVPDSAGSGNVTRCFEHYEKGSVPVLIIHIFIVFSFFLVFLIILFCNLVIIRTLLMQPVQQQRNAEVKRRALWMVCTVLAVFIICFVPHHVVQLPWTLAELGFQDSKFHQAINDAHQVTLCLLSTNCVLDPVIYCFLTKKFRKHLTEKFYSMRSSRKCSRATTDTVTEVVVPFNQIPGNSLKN

Row | SMILES | inhibition at 0.003 µM [%] | inhibition at 0.03 µM [%]
1 | CCCOc1c(OCCCO)cc([C@@H]2CC[C@@H](c3cnc(OC)c(OC)c3)O2)cc1S(=O)(=O)CC(C)=O (relative stereo) [trans-2-[3-(2-oxopropyl)sulfonyl-4-n-propoxy-5-(3-hydroxypropoxy)phenyl]-5[5-(2,3-dimethoxy)pyridyl]tetrahydrofuran] | 43 | 87
2 | CCCOc1c(OCCO)cc([C@@H]2CC[C@@H](c3cnc(OC)c(OC)c3)O2)cc1S(=O)(=O)CC(C)O (stereo partly drawn) [trans-2-[3-(2-Hydroxypropyl)sulfonyl-4-n-propoxy 5-(2-hydroxyethoxy)phenyl]-5-[5-(2,3-dimethoxy)pyridyl]tetrahydrofuran] | 13 | 58
3 | CCCOc1c(OCC(C)=O)cc([C@@H]2CC[C@@H](c3cnc(OC)c(OC)c3)O2)cc1S(=O)(=O)CCC (relative stereo) [trans-2-[3-n-propylsulfonyl-4-n-propoxy-5-(2-oxopropoxy)phenyl]-5-[5-(2,3-dimethoxy)pyridyl]tetrahydrofuran] | 63 | 93
4 | CCCOc1c(OCC(C)=O)cc([C@H]2CC[C@H](c3cccnc3)O2)cc1S(=O)(=O)CCC (relative stereo) [trans-2-[3-n-propylsulfonyl-4-n-propoxy-5-(2-oxopropoxy)phenyl]-5-(3-pyridyl) tetrahydrofuran] | 12 | 66
5 | CCCOc1c(OCC(C)=O)cc([C@@H]2CC[C@@H](c3cnc(OC)c(OC)n3)O2)cc1S(=O)(=O)CCC (relative stereo) [trans-2-[3-n-propylsulfonyl-4-n-propoxy-5-(2-oxopropoxy)phenyl]-5-[6-(2,3-dimethoxy)pyrazyl]tetrahydrofuran] | 58 | 100
6 | CCCOc1c(OCC(C)O)cc([C@@H]2CC[C@@H](c3cnc(OC)c(OC)c3)O2)cc1S(=O)(=O)CCC (stereo partly drawn) [trans-2-[3-n-propylsulfonyl-4-n-propoxy-5-(2-hydroxypropoxy)phenyl]-5-[5-(2,3-dimethoxy)pyridyl]tetrahydrofuran] | 54 | 100
7 | CCCOc1c(OCC(C)=O)cc([C@@H]2CC[C@@H](c3cnc(OC)c(OC)c3)O2)cc1S(=O)(=O)CCCO (relative stereo) | 30 | 66
8 | CCCOc1c(OCC(C)=O)cc([C@@H]2CC[C@@H](c3cnc(OC)c(OC)n3)O2)cc1S(=O)(=O)CC(C)O (stereo partly drawn) [trans-2-[3-(2-Hydroxypropyl)sulfonyl-4-n-propoxy-5-(2-oxopropoxy)phenyl]-5-[6-(2.3 dimethoxy)pyrazyl]tetrahydrofuran] | 42 | 81
9 | CCCOc1c(OCC(C)=O)cc([C@@H]2CC[C@@H](c3cnc(OC)c(OC)c3)O2)cc1S(=O)(=O)CC(C)O (stereo partly drawn) [trans-2-[3-(2-Hydroxypropyl)sulfonyl-4-n-propoxy-5-(2-oxopropoxy)phenyl]-5-[5-(2,3-dimethoxy)pyridyl]tetrahydrofuran] | 31 | 81
10 | CCCOc1c(OCC(C)O)cc([C@@H]2CC[C@@H](c3cnc(OC)c(OC)n3)O2)cc1S(=O)(=O)CCC (stereo partly drawn) [trans-2-[3-n-propylsulfonyl-4-n-propoxy-5-(2-hydroxypropoxy)phenyl]-5-[6-(2,3-dimethoxy)pyrazyl]tetrahydrofuran] | 60 | 100
11 | CCCOc1c(OCCCO)cc([C@@H]2CC[C@@H](c3cnc(OC)c(OC)c3)O2)cc1S(=O)(=O)CC(C)O (stereo partly drawn) [trans-2-[3-(2-Hydroxypropyl)sulfonyl-4-n-propoxy-5-(3-hydroxypropoxy)phenyl]-5[5-(2,3-dimethoxy)pyridyl]tetrahydrofuran] | 16 | 75
